Consider 5 compounds from ChEMBL document CHEMBL1159253, “Two new cytotoxic monotetrahydrofuran Annonaceous acetogenins, annomuricins A and B, from the leaves of Annona muricata” (J Nat Prod, 1995).

For one data set, the system named is A549. Put plainly: Cytotoxicity against human A549 cells after 7 days by MTT assay. Format: functional. The settings on record: for EC50: Homo sapiens, A549, 168 h, read-out: ED50 (the source's name). (In general: Formazan colour is commonly taken as a measure of viable cells.)
For the next data set, the system named is HT-29. Put plainly: Cytotoxicity against human HT-29 cells after 7 days by MTT assay. The settings on record: HT-29, 168 h, read-out: ED50 (the source's name). The data set is classed as functional.
Another data set deals with MCF7. Description: Cytotoxicity against human MCF7 cells after 7 days by MTT assay. The data set is classed as functional. The conditions noted are these: for EC50: Homo sapiens, MCF7, 168 h, read-out: ED50 (the source's name).
The nature of data set [1]: Toxicity against brine shrimp. The data set is classed as organism-based. The conditions noted are these: artemia, in vivo.

Each structure is given as a SMILES string. Values after ≈ are worked out from the molar mass of the structure shown. Some results are limits rather than exact numbers.

As a reminder, the LC50 is the concentration lethal to half of the exposed cells or organisms. Low values mean a more lethal substance, high ones a less lethal substance. In the case of `CCCCCCCCCCCC[C@H](O)[C@H]1CC[C@H]([C@H](O)CCC[C@@H](O)[C@H](O)CCCCC[C@@H](O)CC2=C[C@H](C)OC2=O)O1` [ANNOMURICIN A], the EC50 in the data set on A549 is 0.33 µg/mL (≈ 0.538 µM); with HT-29 it was greater than 1 µg/mL; with MCF7, greater than 1 µg/mL. The compound further had an LC50 in data set [1] of 0.625 µg/mL (≈ 1.02 µM).

Take `CCCCCCCCCCCC[C@H](O)[C@H]1CC[C@H]([C@H](O)CCC[C@H](O)[C@H](O)CCCCC[C@@H](O)CC2=C[C@H](C)OC2=O)O1` [ANNOMURICIN B]: the EC50 in the data set on A549 is 0.159 µg/mL (≈ 0.259 µM); with HT-29 it was 0.435 µg/mL (≈ 0.71 µM); in the data set on MCF7, greater than 1 µg/mL. Also, the LC50 in data set [1] was determined as 0.687 µg/mL (≈ 1.12 µM).

Take `CCCCCCCCCCCC[C@H](O)[C@H]1CC[C@H]([C@H](O)CCC[C@@H]2OC(C)(C)O[C@@H]2CCCCC[C@@H](O)CC2=C[C@H](C)OC2=O)O1`: the ED50 was 3.41 ×10⁻⁴ ug/ml in the data set on A549 and 1.41 ×10⁻⁴ ug/ml in the data set with MCF7. Moreover, in the data set on HT-29, the EC50 was determined as 0.0933 µg/mL (≈ 0.143 µM). In addition, the LC50 in data set [1] worked out at 0.18 µg/mL (≈ 0.276 µM).

As for `COc1cccc2c1C(=O)c1c(O)c3c(c(O)c1C2=O)C[C@@](O)(C(=O)CO)C[C@@H]3O[C@H]1C[C@H](N)[C@H](O)[C@H](C)O1` [DOXORUBICIN], the EC50 was 0.0101 µg/mL (≈ 0.0186 µM) in the data set with A549, 0.0275 µg/mL (≈ 0.0506 µM) in the data set on HT-29 and 0.126 µg/mL (≈ 0.232 µM) in the data set on MCF7.

For the compound `CCCCCCCCCCCC[C@H](O)[C@H]1CC[C@H]([C@H](O)CCC[C@H]2OC(C)(C)O[C@@H]2CCCCC[C@@H](O)CC2=C[C@H](C)OC2=O)O1`, the results for the ED50 with A549 and in the data set with MCF7 were 1.58 ×10⁻⁴ ug/ml and 2.78 ×10⁻⁴ ug/ml, respectively. For the same compound, the EC50 with HT-29 was greater than 1 µg/mL. In data set [1], this compound had an LC50 of 0.131 µg/mL (≈ 0.201 µM).
